Converted amounts (≈) assume the structure as drawn.
What was measured:
Format in all cases: functional
[1] = system: Mycolicibacterium smegmatis; experiment: Antimycobacterial activity against Mycobacterium smegmatis MC2 ATCC 19420 using compound level ranging from 1 to 100 ug/mL after 7 days by resazurin reduction test; conditions: MC2 ATCC 19420, 168 h
Staphylococcus aureus = experiment: Antibacterial activity against Staphylococcus aureus ATCC 25923 after 18 to 25 hrs by serial plate dilution method
[2] = system: Mycobacterium tuberculosis; experiment: Antimycobacterial activity against Mycobacterium tuberculosis H37Rv ATCC 27294 using compound level ranging from 0.3125 to 5 ug/mL after 7 days by resazurin reduction test; conditions: H37Rv ATCC 27294, 168 h
[3] = system: Mycolicibacterium fortuitum; experiment: Antimycobacterial activity against Mycobacterium fortuitum ATCC 19542 using compound level ranging from 1 to 100 ug/mL after 7 days by resazurin reduction test; conditions: ATCC 19542, 168 h
Streptococcus pyogenes = experiment: Antibacterial activity against Streptococcus pyogenes clinical isolate after 18 to 25 hrs by serial plate dilution method
Klebsiella pneumoniae = experiment: Antibacterial activity against Klebsiella pneumoniae clinical isolates after 18 to 25 hrs by serial plate dilution method
Escherichia coli = experiment: Antibacterial activity against Escherichia coli ATCC 25922 after 18 to 25 hrs by serial plate dilution method
[4] = system: Mycobacterium tuberculosis; experiment: Growth inhibition of Mycobacterium tuberculosis H37Rv ATCC 27294 using compound level ranging from 1 to 100 ug/mL after 7 days by resazurin reduction test
Pseudomonas aeruginosa = experiment: Antibacterial activity against Pseudomonas aeruginosa ATCC 27853 after 18 to 25 hrs by serial plate dilution method
[5] = system: Mycobacterium tuberculosis; experiment: Antimycobacterial activity against Mycobacterium tuberculosis H37Rv ATCC 27294 using compound level ranging from 1 to 100 ug/mL after 7 days by resazurin reduction test; conditions: H37Rv ATCC 27294, 168 h
[6] = system: Mycolicibacterium fortuitum; experiment: Antimycobacterial activity against Mycobacterium fortuitum ATCC 19542 using compound level ranging from 0.3125 to 5 ug/mL after 7 days by resazurin reduction test; conditions: ATCC 19542, 168 h
[7] = system: Mycolicibacterium smegmatis; experiment: Antimycobacterial activity against Mycobacterium smegmatis MC2 ATCC 19420 using compound level ranging from 0.3125 to 5 ug/mL after 7 days by resazurin reduction test; conditions: MC2 ATCC 19420, 168 h

Row | SMILES | MIC [1] | MIC (Staphylococcus aureus) | MIC [2] | MIC [3] | MIC (Streptococcus pyogenes) | MIC (Klebsiella pneumoniae) | MIC (Escherichia coli) | growth inhibition (GI) [4] | MIC (Pseudomonas aeruginosa) | MIC [5] | MIC [6] | MIC [7]
1 | COc1ccc(/C=N/NC(=O)c2cnc3c(C(F)(F)F)cccc3c2O)cc1O | > 100 µg/mL | 1.6 µg/mL (≈ 3.95 µM) | 10 µg/mL (≈ 24.7 µM) | > 100 µg/mL | 1.6 µg/mL (≈ 3.95 µM) | 12.5 µg/mL (≈ 30.8 µM) | 12.5 µg/mL (≈ 30.8 µM) | <90% | 6.25 µg/mL (≈ 15.4 µM) | 10 µg/mL (≈ 24.7 µM) | – | –
2 | CO[C@H]1/C=C/O[C@@]2(C)Oc3c(C)c(O)c4c(O)c(c(/C=N/N5CCN(C)CC5)c(O)c4c3C2=O)NC(=O)/C(C)=C\C=C\[C@H](C)[C@H](O)[C@@H](C)[C@@H](O)[C@@H](C)[C@H](OC(C)=O)[C@@H]1C [RIFAMPIN] | 1.5 µg/mL (≈ 1.82 µM) | – | 0.5 µg/mL (≈ 0.608 µM) | 1.5 µg/mL (≈ 1.82 µM) | – | – | – | 95% | – | 0.5 µg/mL (≈ 0.608 µM) | 1.5 µg/mL (≈ 1.82 µM) | 1.5 µg/mL (≈ 1.82 µM)
3 | O=C(N/N=C/c1ccc2c(c1)CCO2)c1cnc2c(C(F)(F)F)cccc2c1O | > 100 µg/mL | 1.6 µg/mL (≈ 3.99 µM) | – | > 100 µg/mL | 3.12 µg/mL (≈ 7.77 µM) | 6.25 µg/mL (≈ 15.6 µM) | 12.5 µg/mL (≈ 31.1 µM) | 0% | 3.12 µg/mL (≈ 7.77 µM) | > 100 µg/mL | – | –
4 | CCc1ccc(NC(=O)NNC(=O)c2cnc3c(C(F)(F)F)cccc3c2O)cc1 | > 100 µg/mL | 6.25 µg/mL (≈ 14.9 µM) | 12.5 µg/mL (≈ 29.9 µM) | > 100 µg/mL | 12.5 µg/mL (≈ 29.9 µM) | 6.25 µg/mL (≈ 14.9 µM) | 3.12 µg/mL (≈ 7.46 µM) | <90% | 12.5 µg/mL (≈ 29.9 µM) | 10 µg/mL (≈ 23.9 µM) | – | –
5 | COC(=O)Cc1cc(/C=N/NC(=O)c2cnc3c(C(F)(F)F)cccc3c2O)co1 | > 100 µg/mL | 6.25 µg/mL (≈ 14.8 µM) | 5 µg/mL (≈ 11.9 µM) | > 100 µg/mL | 12.5 µg/mL (≈ 29.7 µM) | 6.25 µg/mL (≈ 14.8 µM) | 3.12 µg/mL (≈ 7.41 µM) | <90% | 12.5 µg/mL (≈ 29.7 µM) | 10 µg/mL (≈ 23.7 µM) | – | –
6 | COc1ccc(/C=N/NC(=O)c2cnc3c(C(F)(F)F)cccc3c2O)c(F)c1 | 10 µg/mL (≈ 24.6 µM) | 0.8 µg/mL (≈ 1.96 µM) | 0.625 µg/mL (≈ 1.53 µM) | 10 µg/mL (≈ 24.6 µM) | 0.4 µg/mL (≈ 0.982 µM) | 0.1 µg/mL (≈ 0.246 µM) | 0.1 µg/mL (≈ 0.246 µM) | 95% | 0.4 µg/mL (≈ 0.982 µM) | 1 µg/mL (≈ 2.46 µM) | 10 µg/mL (≈ 24.6 µM) | 10 µg/mL (≈ 24.6 µM)
7 | COc1ccc(/C=N/NC(=O)c2cnc3c(C(F)(F)F)cccc3c2O)cc1 | 10 µg/mL (≈ 25.7 µM) | 0.8 µg/mL (≈ 2.05 µM) | 1.25 µg/mL (≈ 3.21 µM) | 10 µg/mL (≈ 25.7 µM) | 0.4 µg/mL (≈ 1.03 µM) | 0.8 µg/mL (≈ 2.05 µM) | 0.4 µg/mL (≈ 1.03 µM) | 90% | 0.8 µg/mL (≈ 2.05 µM) | 1 µg/mL (≈ 2.57 µM) | 10 µg/mL (≈ 25.7 µM) | 10 µg/mL (≈ 25.7 µM)
8 | Cn1cccc1/C=N\NC(=O)c1cnc2c(C(F)(F)F)cccc2c1O | 1 µg/mL (≈ 2.76 µM) | 0.8 µg/mL (≈ 2.21 µM) | 0.625 µg/mL (≈ 1.73 µM) | 10 µg/mL (≈ 27.6 µM) | 0.4 µg/mL (≈ 1.1 µM) | 0.1 µg/mL (≈ 0.276 µM) | 0.1 µg/mL (≈ 0.276 µM) | 90% | 0.4 µg/mL (≈ 1.1 µM) | 1 µg/mL (≈ 2.76 µM) | 10 µg/mL (≈ 27.6 µM) | 1.25 µg/mL (≈ 3.45 µM)
9 | COc1ccc(NC(=O)NNC(=O)c2cnc3c(C(F)(F)F)cccc3c2O)cc1 | 10 µg/mL (≈ 23.8 µM) | 0.8 µg/mL (≈ 1.9 µM) | 1.25 µg/mL (≈ 2.97 µM) | 10 µg/mL (≈ 23.8 µM) | 0.4 µg/mL (≈ 0.952 µM) | 0.1 µg/mL (≈ 0.238 µM) | 0.1 µg/mL (≈ 0.238 µM) | 90% | 0.4 µg/mL (≈ 0.952 µM) | 1 µg/mL (≈ 2.38 µM) | 12.5 µg/mL (≈ 29.7 µM) | 10 µg/mL (≈ 23.8 µM)
10 | Cc1ccc(/C=N/NC(=O)c2cnc3c(C(F)(F)F)cccc3c2O)cc1 | > 100 µg/mL | 1.6 µg/mL (≈ 4.29 µM) | 10 µg/mL (≈ 26.8 µM) | > 100 µg/mL | 3.12 µg/mL (≈ 8.36 µM) | 0.8 µg/mL (≈ 2.14 µM) | 3.12 µg/mL (≈ 8.36 µM) | <90% | 3.12 µg/mL (≈ 8.36 µM) | 10 µg/mL (≈ 26.8 µM) | – | –
11 | Cn1nnc2cc(/C=N\NC(=O)c3cnc4c(C(F)(F)F)cccc4c3O)ccc21 | > 100 µg/mL | 0.8 µg/mL (≈ 1.93 µM) | 5 µg/mL (≈ 12.1 µM) | > 100 µg/mL | 0.4 µg/mL (≈ 0.965 µM) | 0.8 µg/mL (≈ 1.93 µM) | 0.4 µg/mL (≈ 0.965 µM) | <90% | 1.6 µg/mL (≈ 3.86 µM) | 10 µg/mL (≈ 24.1 µM) | – | –
12 | O=C(N/N=C/c1cnc[nH]1)c1cnc2c(C(F)(F)F)cccc2c1O | > 1000 µg/mL | 0.8 µg/mL (≈ 2.29 µM) | 1.25 µg/mL (≈ 3.58 µM) | 10 µg/mL (≈ 28.6 µM) | 0.4 µg/mL (≈ 1.15 µM) | 0.4 µg/mL (≈ 1.15 µM) | 0.2 µg/mL (≈ 0.573 µM) | 90% | 0.8 µg/mL (≈ 2.29 µM) | 1 µg/mL (≈ 2.86 µM) | 10 µg/mL (≈ 28.6 µM) | –
13 | Cc1ccc(NC(=O)NNC(=O)c2cnc3c(C(F)(F)F)cccc3c2O)cc1 | 10 µg/mL (≈ 24.7 µM) | 0.8 µg/mL (≈ 1.98 µM) | 1.25 µg/mL (≈ 3.09 µM) | 10 µg/mL (≈ 24.7 µM) | 0.4 µg/mL (≈ 0.989 µM) | 0.1 µg/mL (≈ 0.247 µM) | 0.2 µg/mL (≈ 0.495 µM) | 90% | 0.8 µg/mL (≈ 1.98 µM) | 1 µg/mL (≈ 2.47 µM) | 10 µg/mL (≈ 24.7 µM) | 10 µg/mL (≈ 24.7 µM)

Source: ChEMBL document CHEMBL1909590, “Design, synthesis and docking studies of new quinoline-3-carbohydrazide derivatives as antitubercular agents” (2011)
